Results taken from patent publication US20050027103A1, “Structural and cytoskeleton-associated protein” (priority 2001, published 2005).

Test system: expression of SEQ ID NO:33 in early confluent human C3C cells
Assay: Microarray analysis of SEQ ID NO:33 expression in response to a steroid
Type: cell-based
Details: 1, 10, and 100 μM beclomethasone for 1, 3, and 6 h
Method: Total RNA is isolated from tissue samples using the guanidinium thiocyanate method and poly(A)^+ RNA is purified using the oligo-(dT) cellulose method. Each poly(A)^+ RNA sample is reverse transcribed using MMLV reverse-transcriptase, 0.05 pg/μl oligo-(dT) primer (21mer), 1×first strand buffer, 0.03 units/μl RNase inhibitor, 500 μM DATP, 500 μM dGTP, 500 μM dTTP, 40 μM dCTP, 40 μM dCTP-Cy3 (BDS) or dCTP-Cy5 (Amersham Biosciences). The reverse transcription reaction is performed in a […] containing 200 ng poly(A)^+ RNA with GENBRIGHT kits (Incyte). Specific control poly(A)^+ RNAs are synthesized by int vitro transcription from non-coding yeast genomic DNA. After incubation at 37° C. for 2 hr, each reaction sample (one with Cy3 and another with Cy5 labeling) is treated with […] of 0.5M sodiumhydroxide and incubated for 20 minutes at 85° C. to the stop the reaction and degrade the RNA. […]
Sequences of the present invention are used to generate array elements. […] PCR amplification uses primers complementary to the vector sequences flanking the cDNA inset Array elements are amplified in thity cycles of PCR from an initial quantity of 1-2 ng to a final quantity greater than 5 μg. […]

C[C@H]1C[C@H]2[C@@H]3CCC4=CC(=O)C=C[C@]4(C)[C@@]3(Cl)[C@@H](O)C[C@]2(C)[C@@]1(O)C(=O)CO [beclomethasone]
expression of SEQ ID NO:33 decreased (microarray analysis): at least 2 fold
